Assay results as given in patent publication US8658697B2 (priority 2004, dated 2014).

Experiments:
Candide I = experiment: microbe, parasite or virus in culture; type: cell-based, Junin virus (vaccine strain); details: Mammarenavirus juninense, read-out: Candide I
[1] = tested on: Tacaribe virus (TRVL 11573); experiment: microbe, parasite or virus in culture; type: cell-based; details: Mammarenavirus tacaribeense, Vero, read-out: Tacaribe EC50
VSV pseudotyped virus = experiment: microbe, parasite or virus in culture; type: cell-based; details: Vesicular stomatitis virus, read-out: EC50 vs. pseudotyped virus (μM) VSV
[2] = tested on: Pichinde pseudotyped virus; experiment: microbe, parasite or virus in culture; type: cell-based; details: read-out: EC50 vs. pseudotyped virus (μM) Pichinde
[3] = tested on: Tacaribe pseudotyped virus; experiment: microbe, parasite or virus in culture; type: cell-based; details: Mammarenavirus tacaribeense, read-out: EC50 vs. pseudotyped virus (μM) Tacaribe
Candid-1 vaccine virus = experiment: microbe, parasite or virus in culture; type: cell-based, Junin virus (vaccine strain); details: Mammarenavirus juninense, Vero, 168 h, read-out: Candid 1 EC50
[4] = tested on: Machupo pseudotyped virus; experiment: microbe, parasite or virus in culture; type: cell-based; details: Mammarenavirus machupoense, read-out: EC50 vs. pseudotyped virus (μM) Machupo
[5] = tested on: Guanarito pseudotyped virus; experiment: microbe, parasite or virus in culture; type: cell-based; details: Mammarenavirus guanaritoense, read-out: EC50 vs. pseudotyped virus (μM) Guanarito
Tacaribe virus = experiment: microbe, parasite or virus in culture; type: cell-based; details: Mammarenavirus tacaribeense, Vero, 168 h, read-out: Tacaribe EC50
[6] = in vivo; cited from earlier work

Compound: Cc1nn(C)c(Cl)c1S(=O)(=O)NNC(=O)NC(C)(C(F)(F)F)C(F)(F)F [Example 21, N-2-(1,1,1,3,3,3-Hexafluoro-2-methylpropyl)-2-[2-(5-chloro-1,3-dimethyl-1H-pyrazolyl)sulfonyl]hydrazine-1-carboxamide]
- EC50 (Candide I): 1 to 5 µM
- EC50 [1]: 0.5 to 1 µM

Compound: CC(=O)c1ccc(S(=O)(=O)NNC(=O)NC(C)(C(F)(F)F)C(F)(F)F)cc1 [Example 39, N-2-(1,1,1,3,3,3-Hexafluoro-2-methylpropyl)-2-[(4-acetylphenyl)sulfonyl]hydrazine-1-carboxamide]
- EC50 (Candide I): > 5 µM
- EC50 [1]: 1 to 5 µM

Compound: Cc1cccc(NC(=O)NC(C)(C(F)(F)F)C(F)(F)F)c1 [Example 86, 1-(3-Methylphenyl)-3-(2,2,2-trifluoro-1-methyl-1-trifluoromethylethyl)-urea]
- EC50 [1]: > 5 µM

Compound: CC(NC(=O)Nc1ccc(S(N)(=O)=O)cc1)(C(F)(F)F)C(F)(F)F [Example 87, 4-[3-(1,1-Bis-trifluoromethylethyl)-ureido]benzenesulfonamide]
- EC50 [1]: > 5 µM

Compound: CC(NC(=O)Nc1c(Br)cccc1Br)(C(F)(F)F)C(F)(F)F [Example 88, 1-(2,6-Dibromophenyl)-3-(2,2,2-trifluoro-1-methyl-1-trifluoromethylethyl)-urea]
- EC50 [1]: > 5 µM

Compound: Cc1ccccc1NC(=O)NC(C)(C(F)(F)F)C(F)(F)F [Example 89, 1-(2-Methylphenyl)-3-(2,2,2-trifluoro-1-methyl-1-trifluoromethylethyl)-urea]
- EC50 [1]: > 5 µM

Compound: Cc1ccc(NC(=O)NC(C)(C(F)(F)F)C(F)(F)F)cc1 [Example 90, 1-(4-Methylphenyl)-3-(2,2,2-trifluoro-1-methyl-1-trifluoromethylethyl)-urea]
- EC50 [1]: > 5 µM

Compound: CC(NC(=O)N1CCCC1)(C(F)(F)F)C(F)(F)F [Example 91, 1-Pyrrolidinyl-1-(2,2,2-trifluoro-1-methyl-1-trifluoromethylethyl)-carboxamide]
- EC50 [1]: > 5 µM

Compound: CC(NC(=O)Nc1ccc(F)cc1)(C(F)(F)F)C(F)(F)F [Example 92, 1-(4-Fluorophenyl)-3-(2,2,2-trifluoro-1-methyl-1-trifluoromethylethyl)-urea]
- EC50 [1]: > 5 µM

Compound: CC(NC(=O)Nc1ccc(Br)cc1Br)(C(F)(F)F)C(F)(F)F [Example 93, 1-(2,4-Dibromophenyl)-3-(2,2,2-trifluoro-1-methyl-1-trifluoromethylethyl)-urea]
- EC50 [1]: > 5 µM

Compound: CC(NC(=O)N1CCCCCC1)(C(F)(F)F)C(F)(F)F [Example 94, Azepane-1-carboxylic acid (2,2,2-trifluoro-1-methyl-1-trifluoromethylethyl)-amide]
- EC50 [1]: > 5 µM

Compound: CC(NC(=O)Nc1ccc(Br)cc1OC(F)(F)F)(C(F)(F)F)C(F)(F)F [Example 95, 1-(4-Bromo-2-trifluoromethoxyphenyl)-3-(2,2,2-trifluoro-1-methyl-1-trifluoromethylethyl)-urea]
- EC50 [1]: > 5 µM

Compound: CC(NC(=O)Nc1ccccc1OC(F)(F)F)(C(F)(F)F)C(F)(F)F [Example 96, 1-(2-Trifluoromethoxyphenyl)-3-(2,2,2-trifluoro-1-methyl-1-trifluoromethylethyl)-urea]
- EC50 [1]: > 5 µM

Compound: COc1ccccc1NC(=O)NC(C)(C(F)(F)F)C(F)(F)F [Example 98, 1-(2-Methoxyphenyl)-3-(2,2,2-trifluoro-1-methyl-1-trifluoromethylethyl)-urea]
- EC50 [1]: > 5 µM

Compound: CCC(NC(=O)NNC(=O)c1cc(OCC(F)(F)F)ccc1OCC(F)(F)F)(C(F)(F)F)C(F)(F)F [Example 99, 2-[2,5-bis(2,2,2-trifluoroethoxy)benzoyl]-N-[1,1-bis(trifluoromethyl)propyl]hydrazinecarboxamide]
- EC50 (VSV pseudotyped virus): > 5 µM
- EC50 [2]: 1 to 5 µM
- EC50 [3]: < 0.5 µM
- EC50 (Candid-1 vaccine virus): > 5 µM
- EC50 [4]: 0.5 to 1 µM
- EC50 [5]: 1 to 5 µM
- EC50 (Tacaribe virus): < 0.5 µM

Compound: CCC(NC(=O)NNC(=O)c1ccc(C(C)(C)C)cc1)(C(F)(F)F)C(F)(F)F [Example 100, N-[1,1-bis(trifluoromethyl)propyl]-2-(4-tert-butylbenzoyl)hydrazinecarboxamide]
- EC50 (VSV pseudotyped virus): > 5 µM
- EC50 [2]: 1 to 5 µM
- EC50 [3]: < 0.5 µM
- EC50 (Candid-1 vaccine virus): 1 to 5 µM
- EC50 [4]: < 0.5 µM
- EC50 [5]: < 0.5 µM
- EC50 (Tacaribe virus): < 0.5 µM

Compound: CCC(NC(=O)NNC(=O)c1ccc(-c2ccccc2)cc1)(C(F)(F)F)C(F)(F)F [Example 101, 2-(1,1′-biphenyl-4-ylcarbonyl)-N-[1,1-bis(trifluoromethyl)propyl] hydrazinecarboxamide]
- EC50 (VSV pseudotyped virus): > 5 µM
- EC50 [2]: 0.5 to 1 µM
- EC50 [3]: < 0.5 µM
- EC50 (Candid-1 vaccine virus): 1 to 5 µM
- EC50 [4]: < 0.5 µM
- EC50 [5]: < 0.5 µM
- EC50 (Tacaribe virus): < 0.5 µM

Compound: CCC(NC(=O)NNC(=O)c1cccc2ccccc12)(C(F)(F)F)C(F)(F)F [Example 102, N-[1,1-bis(trifluoromethyl)propyl]-2-(1-naphthoyl)hydrazinecarboxamide]
- EC50 (VSV pseudotyped virus): > 5 µM
- EC50 [2]: 1 to 5 µM
- EC50 [3]: < 0.5 µM
- EC50 (Candid-1 vaccine virus): > 5 µM
- EC50 [4]: < 0.5 µM
- EC50 [5]: 1 to 5 µM
- EC50 (Tacaribe virus): < 0.5 µM

Compound: CCC(NC(=O)NNC(=O)c1ccccc1-c1ccccc1)(C(F)(F)F)C(F)(F)F [Example 103]
- EC50 (VSV pseudotyped virus): > 5 µM
- EC50 [2]: 1 to 5 µM
- EC50 [3]: < 0.5 µM
- EC50 (Candid-1 vaccine virus): 1 to 5 µM
- EC50 [4]: < 0.5 µM
- EC50 [5]: < 0.5 µM
- EC50 (Tacaribe virus): 0.5 to 1 µM

Compound: CCC(NC(=O)NNC(=O)c1ccc(C)cc1)(C(F)(F)F)C(F)(F)F [Example 104, N-[1,1-bis(trifluoromethyl)propyl]-2-(4-methylbenzoyl)hydrazinecarboxamide]
- EC50 (VSV pseudotyped virus): > 5 µM
- EC50 [2]: 1 to 5 µM
- EC50 [3]: < 0.5 µM
- EC50 (Candid-1 vaccine virus): > 5 µM
- EC50 [4]: < 0.5 µM
- EC50 [5]: < 0.5 µM
- EC50 (Tacaribe virus): 0.5 to 1 µM

Compound: CCC(NC(=O)NNC(=O)c1ccc2ccccc2c1)(C(F)(F)F)C(F)(F)F [Example 105, N-[1,1-bis(trifluoromethyl)propyl]-2-(2-naphthoyl)hydrazinecarboxamide]
- EC50 (VSV pseudotyped virus): > 5 µM
- EC50 [2]: 1 to 5 µM
- EC50 [3]: < 0.5 µM
- EC50 (Candid-1 vaccine virus): 1 to 5 µM
- EC50 [4]: < 0.5 µM
- EC50 [5]: < 0.5 µM
- EC50 (Tacaribe virus): < 0.5 µM

Compound: CCC(NC(=O)NNC(=O)c1cc(OC)ccc1OC)(C(F)(F)F)C(F)(F)F [Example 106, N-[1,1-bis(trifluoromethyl)propyl]-2-(2,5-dimethoxybenzoyl)hydrazinecarboxamide]
- EC50 (VSV pseudotyped virus): > 5 µM
- EC50 [2]: > 5 µM
- EC50 [3]: < 0.5 µM
- EC50 (Candid-1 vaccine virus): 1 to 5 µM
- EC50 [4]: < 0.5 µM
- EC50 [5]: < 0.5 µM
- EC50 (Tacaribe virus): < 0.5 µM

Compound: CCC(NC(=O)NNC(=O)c1ccc(Cl)c(Cl)c1)(C(F)(F)F)C(F)(F)F [Example 107, N-[1,1-bis(trifluoromethyl)propyl]-2-(3,4-dichlorobenzoyl)hydrazinecarboxamide]
- EC50 (VSV pseudotyped virus): > 5 µM
- EC50 [2]: 1 to 5 µM
- EC50 [3]: < 0.5 µM
- EC50 (Candid-1 vaccine virus): 1 to 5 µM
- EC50 [4]: < 0.5 µM
- EC50 [5]: < 0.5 µM
- EC50 (Tacaribe virus): 0.5 to 1 µM

Compound: CCC(NC(=O)NNC(=O)c1ccc(Br)cc1)(C(F)(F)F)C(F)(F)F [Example 108, N-[1,1-bis(trifluoromethyl)propyl]-2-(4-bromobenzoyl)hydrazinecarboxamide]
- EC50 (VSV pseudotyped virus): > 5 µM
- EC50 [2]: 1 to 5 µM
- EC50 [3]: < 0.5 µM
- EC50 (Candid-1 vaccine virus): 1 to 5 µM
- EC50 [4]: < 0.5 µM
- EC50 [5]: < 0.5 µM
- EC50 (Tacaribe virus): 0.5 to 1 µM

Compound: CCC(NC(=O)NNC(=O)c1ccc(C(C)C)cc1)(C(F)(F)F)C(F)(F)F [Example 109, N-[1,1-bis(trifluoromethyl)propyl]-2-(4-isopropylbenzoyl)hydrazinecarboxamide]
- EC50 (VSV pseudotyped virus): > 5 µM
- EC50 [2]: > 5 µM
- EC50 [3]: < 0.5 µM
- EC50 (Candid-1 vaccine virus): 1 to 5 µM
- EC50 [4]: < 0.5 µM
- EC50 [5]: < 0.5 µM
- EC50 (Tacaribe virus): < 0.5 µM

Compound: CCC(NC(=O)NNC(=O)c1cc(C)cc(C)c1)(C(F)(F)F)C(F)(F)F [Example 110, N-[1,1-bis(trifluoromethyl)propyl]-2-(3,5-dimethylbenzoyl)hydrazinecarboxamide]
- EC50 (VSV pseudotyped virus): > 5 µM
- EC50 [2]: 1 to 5 µM
- EC50 [3]: < 0.5 µM
- EC50 (Candid-1 vaccine virus): 1 to 5 µM
- EC50 [4]: < 0.5 µM
- EC50 [5]: 0.5 to 1 µM
- EC50 (Tacaribe virus): < 0.5 µM

Compound: CCC(NC(=O)NNC(=O)c1c(C)cc(C)cc1C)(C(F)(F)F)C(F)(F)F [Example 111, N-[1,1-bis(trifluoromethyl)propyl]-2-(mesitylcarbonyl)hydrazinecarboxamide]
- EC50 (VSV pseudotyped virus): > 5 µM
- EC50 [2]: 1 to 5 µM
- EC50 [3]: < 0.5 µM
- EC50 [4]: < 0.5 µM
- EC50 [5]: 0.5 to 1 µM
- EC50 (Tacaribe virus): 1 to 5 µM

Compound: CCC(NC(=O)NNC(=O)c1cc(Cl)ccc1OC)(C(F)(F)F)C(F)(F)F [Example 112, N-[1,1-bis(trifluoromethyl)propyl]-2-(5-chloro-2-methoxybenzoyl)hydrazinecarboxamide]
- EC50 (VSV pseudotyped virus): > 5 µM
- EC50 [2]: 1 to 5 µM
- EC50 [3]: < 0.5 µM
- EC50 (Candid-1 vaccine virus): > 5 µM
- EC50 [4]: < 0.5 µM
- EC50 [5]: < 0.5 µM
- EC50 (Tacaribe virus): < 0.5 µM

Compound: NC(=O)c1ncn([C@@H]2O[C@H](CO)[C@@H](O)[C@H]2O)n1 [ribavirin, Ribavirin]
- adverse effects [6]: dose-related, reversible hemolytic anemia
